This is an account of results in PubChem BioAssay (NCI).

Test systems include SNB-78 CNS; DMS 114 small cell lung; DLD-1 colon; HOP-18 NSCLC; MDA-MB-435; HS 578T breast; DU-145 prostate; NCI/ADR-RES ovarian; T-47D breast; MCF7 breast.
Common to all, as to test: NCI tumour cell line growth inhibition, 48 h

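Growth conditions: 96-well plates. Treatment: test compound, 48 hours, 5 concentrations. Analysis: linear interpolation between bracketing concentrations; unreached endpoints set to highest concentration. GI50 is the concentration that inhibits growth by half. The concentration for full growth arrest is given as TGI.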

Consider `CC(C)(C)NCC(COc1ccc([N+](=O)[O-])cc1)OP(c1ccccc1)c1ccccc1` (configuration not stated), for which the figures for the TGI in the experiment with SNB-78 CNS, with DMS 114 small cell lung and with DLD-1 colon were greater than 100 µM, 83.9 µM and greater than 100 µM, respectively.

Regarding `c1ccc2[nH]c(CNc3ccc(C4C[Se]N=N4)cc3)nc2c1` (configuration not stated), the TGI in the experiment on HOP-18 NSCLC was greater than 100 µM; in the experiment with DMS 114 small cell lung, 72.6 µM; with DLD-1 colon it was greater than 100 µM.

`Cc1cccc(C)c1N1C(=O)C(=O)C(c2nc3ccccc3s2)C(=Nc2cccc3c(=O)[nH][nH]c(=O)c23)C1=O` (configuration not stated): the TGI in the experiment on HOP-18 NSCLC, in the experiment with SNB-78 CNS and with DLD-1 colon was greater than 100 µM in each case.

With `CC1=NN(C(=O)c2ccncc2)C(=O)C1N=Nc1ccc(F)cc1` (configuration not stated), the TGI in the experiment with SNB-78 CNS, in the experiment with DMS 114 small cell lung and in the experiment with DLD-1 colon was greater than 100 µM in each case.

For the compound `N.N.N.N.N.O=S(=O)([O-])S(=O)(=O)[O-].[Co+3]`, the GI50 in the experiment on SNB-78 CNS and in the experiment on DLD-1 colon was greater than 100 µM in each case. Besides, the TGI with SNB-78 CNS and in the experiment on DLD-1 colon was greater than 100 µM in each case.

As to `CC1(O)CCn2c(=O)c3cc4ccccc4cc3c(=O)n2C1O` (configuration not stated), the TGI in the experiment with HOP-18 NSCLC, in the experiment with DMS 114 small cell lung and in the experiment with DLD-1 colon was greater than 100 µM throughout.

`Cc1ccc2oc(=O)c(-c3ccccc3)nc2c1`: the values for the TGI in the experiment with HOP-18 NSCLC and in the experiment with DLD-1 colon were 84.4 µM and greater than 100 µM, respectively.

Turning to `CC(C)[O-].CC(C)[O-].O=c1cccccc1[O-].O=c1cccccc1[O-].[Ti+4]`, in the experiment on HOP-18 NSCLC, the GI50 was greater than 100 µM and the TGI is greater than 100 µM. For the same compound, in the experiment on DLD-1 colon, the GI50 was 42 µM and the TGI was greater than 100 µM.

As for `O=C(CC1(O)C(=O)Nc2c(Cl)ccc(Cl)c21)c1ccc(Cl)cc1Cl` (configuration not stated), the TGI with HOP-18 NSCLC was greater than 100 µM; with SNB-78 CNS, greater than 100 µM; with DMS 114 small cell lung, 37.4 µM; in the experiment with DLD-1 colon it was greater than 100 µM.

For the compound `CC1(C)CC(=O)C(CC2C(=O)c3ccccc3C2=O)C(=O)C1`, the TGI in the experiment on HOP-18 NSCLC, with SNB-78 CNS, in the experiment with DMS 114 small cell lung and in the experiment with DLD-1 colon was greater than 100 µM throughout.

For `O=C1C2=C(CCC2)Nc2cccc3ncn1c23`, the TGI is 64.2 µM in the experiment with HOP-18 NSCLC, greater than 100 µM in the experiment on SNB-78 CNS, greater than 100 µM in the experiment on DMS 114 small cell lung and greater than 100 µM in the experiment with DLD-1 colon.

Turning to `Cn1c(=O)nc2n(-c3ccc(Cl)c(C(F)(F)F)c3)c3ccccc3nc-2c1=O`, the TGI was greater than 100 µM with HOP-18 NSCLC, greater than 100 µM in the experiment on SNB-78 CNS, 40.6 µM in the experiment on DMS 114 small cell lung and greater than 100 µM in the experiment on DLD-1 colon.

`Cc1nc(-c2cccnc2)sc1C(=O)/C=C/c1cccc([N+](=O)[O-])c1`: the TGI with HOP-18 NSCLC, in the experiment on DMS 114 small cell lung and in the experiment on DLD-1 colon was greater than 100 µM in each case.

Regarding `C[C@]12C/C(=C/O)C(=O)C(O)=C1CC[C@@H]1C2CC[C@@]2(C)C1CC[C@@H]2O` (some centres not stated), the TGI with HOP-18 NSCLC is greater than 100 µM; in the experiment with SNB-78 CNS, 47.3 µM; with DMS 114 small cell lung, 37.5 µM.

Regarding `N#C/C(=C1\SC(N=Nc2ccc(Cl)cc2)C(=O)N1c1ccccc1)c1nc2ccccc2[nH]1` (configuration not stated), the TGI in the experiment on SNB-78 CNS and in the experiment with DLD-1 colon was greater than 100 µM each time.

Take `CCCCCCCCCCCC1CC(=O)NCCCN(C)CCCCN(C)CCCN1C` (configuration not stated): the TGI came to 3.17 µM with HOP-18 NSCLC, 3.27 µM with SNB-78 CNS, 3.19 µM in the experiment on DMS 114 small cell lung and 3 µM in the experiment on DLD-1 colon.

For `CC(C)[O-].CC(C)[O-].CN(CCN(C)Cc1cc(F)cc(F)c1[O-])Cc1cc(F)cc(F)c1[O-].[Ti+4]`, the GI50 is 0.585 µM with MDA-MB-435; 1.62 µM with HS 578T breast; 1.47 µM in the experiment on DU-145 prostate; 0.863 µM with NCI/ADR-RES ovarian; 0.416 µM in the experiment with T-47D breast; 0.687 µM in the experiment on MCF7 breast. The TGI in the experiment with MDA-MB-435 was 2.1 µM; with HS 578T breast, 6.22 µM; with DU-145 prostate, 7.06 µM; in the experiment on NCI/ADR-RES ovarian, 7.05 µM; with T-47D breast, 8.31 µM; in the experiment with MCF7 breast, 2.78 µM.

As for `O=C1CNS(=O)(=O)N1`, the TGI in the experiment with SNB-78 CNS, in the experiment with DMS 114 small cell lung and with DLD-1 colon was greater than 100 µM throughout.

On to `CN(C)C(=S)Nc1nnc(Nc2ccccc2)s1`, for which the TGI in the experiment on HOP-18 NSCLC, in the experiment with SNB-78 CNS and in the experiment on DLD-1 colon was greater than 100 µM throughout.

For the compound `c1ccc(-c2nc(N3CCCNCC3)c3nc(-c4ccccc4)oc3n2)cc1`, the GI50 was 1.64 µM in the experiment on MDA-MB-435; 1.86 µM in the experiment on HS 578T breast; 1.8 µM in the experiment on DU-145 prostate; 1.91 µM in the experiment on NCI/ADR-RES ovarian; 1.78 µM with T-47D breast; 1.67 µM with MCF7 breast. For the same compound, the TGI with MDA-MB-435 worked out at 3.08 µM; with HS 578T breast it was 3.94 µM; with DU-145 prostate, 3.26 µM; in the experiment on NCI/ADR-RES ovarian, 3.86 µM; with T-47D breast, 3.64 µM; in the experiment with MCF7 breast, 3.34 µM.

Take `O=C1c2ccccc2-c2c1c1c(NCCCO)nc3ccccc3c1n2Cc1ccccc1`: the GI50 was 36 µM in the experiment with MDA-MB-435; 40.6 µM in the experiment with HS 578T breast; 16.3 µM in the experiment on DU-145 prostate; 18.2 µM with NCI/ADR-RES ovarian; 21 µM with T-47D breast; 17.2 µM in the experiment on MCF7 breast. The TGI in the experiment on MDA-MB-435 is greater than 100 µM; in the experiment with HS 578T breast, greater than 100 µM; with DU-145 prostate it was 34.1 µM; in the experiment with NCI/ADR-RES ovarian, 49.4 µM; with T-47D breast, 46.4 µM; in the experiment with MCF7 breast it was 31 µM.

Take `Fc1ccc2nc(-c3cc(-c4ccc5c(c4)OCO5)n[nH]3)[nH]c2c1`: the GI50 with MDA-MB-435 was 4.49 µM; with HS 578T breast, 9.53 µM; in the experiment on DU-145 prostate, 5.84 µM; in the experiment on NCI/ADR-RES ovarian, 3.99 µM; in the experiment with T-47D breast it was 3.31 µM; in the experiment with MCF7 breast it was 3.84 µM. Besides, the TGI in the experiment with MDA-MB-435 is greater than 71.7 µM; with HS 578T breast it was greater than 100 µM; with DU-145 prostate it was greater than 53.1 µM; with NCI/ADR-RES ovarian, greater than 100 µM; with T-47D breast, 52.1 µM; in the experiment with MCF7 breast, greater than 100 µM.

On to `COc1cc(CNc2nc3ccc(C(F)(F)F)cc3nc2-c2ccccc2)cc(OC)c1OC`, for which the TGI with SNB-78 CNS and in the experiment with DLD-1 colon was greater than 100 µM in each case.

In the case of `CCCCCCC(C)CCCCCCCCCCC(=O)O` (configuration not stated), the TGI with HOP-18 NSCLC, with DMS 114 small cell lung and in the experiment on DLD-1 colon was greater than 100 µM each time.
